According to patent publication US8466203B2, “Method of stabilizing human eye tissue by reaction with nitrite and related agents such as nitro compounds” (priority 2006, dated 2013):
Read-outs that look alike come from different tables or passages of the source.

Legend:
Solubility in water = type: physicochemical
porcine sclera [1] = test: Thermal shrinkage temperature analysis of porcine scleral strips
Excerpt: Thermal shrinkage temperature or denaturation temperature (Ts) is a technique that has been used for decades in studying collagen cross-linking. As collagen fibers are progressively heated, a threshold temperature is reached at which point disruption of hydrogen bonding in the collagen molecule triple helix occurs, resulting in unwinding of the triple helices. The denaturation of tertiary protein structure results in a rapid shrinkage of the tissue of up to 80%. This phenomenon can be expressed in various ways including temperature of onset of tissue shrinkage, temperature at maximal tissue shrinkage, and temperature at 50% of maximal tissue shrinkage, for example. In addition, differential scanning calorimetry (DSC) is related to thermal shrinkage temperature analysis and is widely used to evaluate biomaterial cross-linking. Thermal shrinkage temperature is essentially a simplified version of DSC and can be used effectively to screen the cross-linking efficacy of compounds. For the purposes of this study, the onset of shrinkage is considered the Ts and the temperature at which 50% of maximal shrinkage has occurred is T50. Graphs depicting the relationship between degree of shrinkage and temperature indicate differences in degree of cross-linking between groups. Thus, stabilization of collagen fiber structures through non-enzymatic cross-linking increases Ts and T50.
This system can perform multiple Ts assays in succession, allowing rapid screening of a number of potential cross-linking agents and conditions. […] Inlet and outlet fittings allow for constant circulation of heated water which is modulated by a digitally controlled water bath equipped with a water pump. The entire box is placed on a digital photo scanner connected to a Windows based computer. Beginning at 50° C. the temperature is raised at a rate of 1° C./min and serial scans are taken at every degree increase in temperature up to 80° C. […] As the tissue shrinks, the images are captured by the scanner. The image files are later analyzed for 2-dimensional area using NIH Image J software and % shrinkage calculations are made using Microsoft Excel for graphing purposes. This method obviates the need for removal of tissue pieces from the water bath with manual micrometer measurements as described by the UVR group (Spoerl, E., et al., 2004).
Using this simple, reproducible assay enables the screening of a number of compounds for cross-linking efficacy. This is first performed using porcine eyes because of their low cost. Follow up studies can be performed using human eyes. Porcine eyes are obtained within 6 hrs of sacrifice (Hatfield Meat Packing, Inc., Hatfield Pa.). Eyes showing clear corneas and intact epithelia are chosen for study. […] Each strip is then cross-linked using a nitro agent. […] Opthalmol. 1999; 117:166-169) for 24-96 hrs. Following incubation, the samples are evaluated for degree of cross-linking using the Ts assay as described above.
From the data, Ts curves are generated for each compound and condition studied. Each data point is the average of 3 independent samples.

porcine cornea [2] = conditions: 200 mM, pH 5.0, 37° C., 30 hours
Method: (§1) Adult porcine eyes were obtained within 12 hours of sacrifice and submerged in a solution of either 200 mM NaNO2 or 200 mM NaCl buffered with 200 mM NaH2PO4/Na2HPO4 (pH 5.0). Penicillin/Streptomycin was added (10 μl/ml) to prevent bacterial overgrowth. After 30 hours of incubation at 37° C., the corneas were excised at the limbus and photographed.

porcine cornea [3] = conditions: 200 mM, pH 5.0, 37° C.
Method: as §1
After 30 and 80 hours of incubation at 37° C., the corneas were excised at the limbus and subjected to shrinkage temperature (thermal denaturation) analysis. The intact cornea was heated in 2° C. increments every 5 minutes using a digitally controlled water bath. The maximal dimensions in the long and short axis were measured using a micrometer under visualization with an operating microscope. The percentage of tissue shrinkage was then estimated by using 2 dimensional area calculations from the micrometer readings.

type I collagen = type I collagen (Bos taurus, UniProt P02453+P02465); conditions: 7 day incubation, pH 7.4, 4° C.
Method: Samples of pepsin-solubilized, bovine skin collagen type I (Purecol, 3 mg/ml, Inamed Corporation, Fremont, Calif., USA) dissolved in 0.012N HCl were spiked with dH2O containing 1M NaNO2 or NaCl concentration to obtain final concentrations of 0 mM, 10 mM, 100 mM NaNO2, and 100 mM NaCl. […] These conditions were identical to those used in the preincubation treatment of collagen for biomechanical testing. Following a 24 hour incubation (4° C.), an aliquot from each sample was added into SDS-PAGE sample buffer (Biorad) in a ratio of 1:2 (sample:sample buffer), reduced by heating at 100° C. for 5 minutes with dithiothreitol (DTT), and analyzed by SDS-PAGE. The separating gel was 5% acrylamide and stacking gel 4%. Equivalent quantities of protein (6 μg per lane) were loaded onto separate wells. The samples were run at 25 volts for approximately 3.5 hours, which was the time necessary for the dye front to leave the bottom of the gel. The gels were then stained with Coomasie blue solution for no less than 3 hours. Following destaining, the gels were digitally photographed for densitometric analysis, which was carried out using the Un-Scan-it software program version 4.1 (Silk Scientific Corp). […]

porcine cornea [4] = test: Gross stiffness of porcine corneal strips handled with a forceps; conditions: 100 mM, pH 7.4, 37° C., 48 hrs
Method: Fresh porcine corneal strips and corneoscleral complexes obtained within 6 hrs of sacrifice and incubated at 37° C. in buffered solutions (pH 7.4) containing 20% Dextran (T500) and either 100 mM NaNO2 or 100 mM of one each of the specified β-nitro alcohols
These images were taken from tissues cross-linked with nitrite and the β-nitro alcohols 2-nitroethanol, 2-nitro-1-propanol, and […], for 48 hrs. […] Fresh porcine corneal strips and corneoscleral complexes were obtained within 6 hrs of sacrifice and incubated at 37° C. in buffered solutions (pH 7.4) containing 20% Dextran (T500) and either 100 mM NaNO2 or 100 mM of one each of the β-nitro alcohols. After 48 hrs, the following images were obtained. […] FIGS. 13 (B and D)

ARPE-19 cells = test system: ARPE-19 cells
Excerpt: A cytotoxicity study was undertaken to obtain an impression of the level of cellular tolerance to these compounds. For pilot experiments ARPE-19 cells were used. This is an immortal human retinal pigment epithelial cell line commonly used for experiments related to macular degeneration. In these pilot studies, the ARPE-19 cells serve as a surrogate for cytotoxicity experiments. Primary cultures of bovine corneal endothelial cells were also used in the cytotoxicity studies described. Bovine corneal cells have more direct relevance for evaluating potential cytotoxic effects during cross-linking of living eye tissue.
ARPE-19 cells were grown to 80% confluence in 96 well tissue culture plates. The cells were then exposed to varying concentrations of NaNO2 and 2-nitroethanol in their culture medium and evaluated for cell death using trypan blue (TB) staining (0.4% for 5 min) after 24 hrs.

[5] = 4° C.
Method: Adult porcine eyes were obtained within 12 hours of. sacrifice and submerged in solutions of 0, 10, 100 mM NaNO2 and 100 mM NaCl buffered with 50 mM NaH2PO4/Na2HPO4 (pH 7.4) following bubbling with 99% Argon/1% O2 in order to limit the amount of potential nitrite auto-oxidation caused by oxygen. Penicillin/Streptomycin was added (10 μl/ml) to prevent bacterial overgrowth. After 24 hours of incubation at 4° C., the aqueous humor was sampled for nitrite concentration using a modification of the Greiss colorimetric assay.
Adult porcine eyes were obtained within 12 hrs of sacrifice and submerged in solutions of 0, 10, 100 mM NaNO2 and 100 mM NaCl buffered with 50 mM NaH2PO4/Na2HPO4 (pH 7.4) following bubbling with 100% Argon in order to limit the amount of potential nitrite auto-oxidation caused by oxygen. Penicillin/Streptomycin was added (10 ul/ml) to prevent bacterial overgrowth. After 24 hrs of incubation at 4° C., the aqueous humor was sampled for nitrite concentration using a modification of the Greiss colorimetric assay.

[6] = test system: fibroblast-populated collagen gels; conditions: 100 mM; pretreatment pH 4.0 24 hours and posttreatment pH 7.4 seven days
Method: Biaxial mechanical properties of the collagen gels were examined by performing equibiaxial load controlled experiments after 72 hours of culture for pretreated and 10 days of culture for posttreated collagen gels. To perform the planar biaxial mechanical test, the loading frame was first removed and the gels were floated to the top of their Petri dish using standard media (DMEM with 10% FBS and antibiotics) at 37° C. Gels were loaded by applying equal weights on all sides of the gel simultaneously (equibiaxial loading). First, gels were preconditioned by cyclically applying and removing 1 gram weights on all sides. […] One prominent feature of the preconditioning response in these gels is that the gels undergo some permanent deformation, not relaxing back to their initial dimensions even when fully unloaded.
The magnitude of the permanent deformation associated with preconditioning was quantified by computing the associated strain (E^P11, E^P22) using the unloaded configuration of the gel at the beginning of the mechanical test as the reference state and the new, stable unloaded state achieved at the end of preconditioning as the deformed state. After preconditioning, calibrated weights from 0 to 1000 mg are applied equibiaxially in 100 mg increments. Images of the gel surface are taken 30 seconds after each load application or removal, and the strains associated with each load were computed relative to the preconditioned unloaded reference state at the beginning of the loading run.
The impact of sodium nitrite on vertical deformation of uniaxially constrained gels was measured during each phase of the experiment.
Initially square fibroblast-populated collagen gels were cast and allowed to polymerize for 2 hrs. Markers were painted on the gel surface to allow tracking of deformation in the central region during the remainder of the experiment. […] At 72 hrs, the gel was mechanically tested. […] Then, the gel was loaded in a series of smaller steps and the response quantified (loading phase).

porcine sclera [7] = conditions: 200 mM, pH 5.0, 37° C., 30 hours
Method: as §1

corneal endothelial cell = conditions: 3 hrs exposure, rabbit organ culture, electron microscopy, Green 1977; cited from earlier work
[8] = 100 mM, 1% DMSO, pH 7.4, 96 hrs
[9] = NaNO2 100 mM pH 3 with 1 mM urea
[10] = NaNO2 100 mM pH 3 with 10 mM urea
[11] = NaNO2 100 mM pH 3 with 100 mM urea

Sequence of type I collagen (P02453 162-1217 limits assumed): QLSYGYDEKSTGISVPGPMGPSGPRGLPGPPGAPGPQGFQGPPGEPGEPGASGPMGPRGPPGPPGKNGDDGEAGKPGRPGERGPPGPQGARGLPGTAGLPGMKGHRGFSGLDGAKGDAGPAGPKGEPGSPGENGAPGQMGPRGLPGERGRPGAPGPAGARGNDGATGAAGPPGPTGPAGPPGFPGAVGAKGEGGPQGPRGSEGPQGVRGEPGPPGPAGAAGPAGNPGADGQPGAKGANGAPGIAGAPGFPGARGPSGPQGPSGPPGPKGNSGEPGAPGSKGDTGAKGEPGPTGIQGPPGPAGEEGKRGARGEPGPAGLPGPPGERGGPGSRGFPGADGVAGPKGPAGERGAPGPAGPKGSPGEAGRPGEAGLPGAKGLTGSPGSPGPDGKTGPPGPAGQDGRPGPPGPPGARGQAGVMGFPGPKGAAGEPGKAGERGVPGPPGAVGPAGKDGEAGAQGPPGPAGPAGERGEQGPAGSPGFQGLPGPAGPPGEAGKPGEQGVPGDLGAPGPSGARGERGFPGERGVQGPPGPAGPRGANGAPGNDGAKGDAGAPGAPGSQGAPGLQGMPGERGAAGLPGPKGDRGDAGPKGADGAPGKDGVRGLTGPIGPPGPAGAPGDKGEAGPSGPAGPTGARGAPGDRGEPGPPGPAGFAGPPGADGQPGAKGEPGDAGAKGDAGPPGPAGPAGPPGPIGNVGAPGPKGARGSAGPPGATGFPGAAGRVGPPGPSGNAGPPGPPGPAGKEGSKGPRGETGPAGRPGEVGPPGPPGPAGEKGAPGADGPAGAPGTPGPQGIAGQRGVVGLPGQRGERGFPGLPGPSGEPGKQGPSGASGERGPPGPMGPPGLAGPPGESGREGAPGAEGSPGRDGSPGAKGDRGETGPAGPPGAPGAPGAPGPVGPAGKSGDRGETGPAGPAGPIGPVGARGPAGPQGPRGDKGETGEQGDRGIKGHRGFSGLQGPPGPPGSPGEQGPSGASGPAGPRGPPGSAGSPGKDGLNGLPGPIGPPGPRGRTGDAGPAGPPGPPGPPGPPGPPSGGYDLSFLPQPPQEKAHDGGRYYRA
Sequence of type I collagen (P02465 80-1117 limits assumed): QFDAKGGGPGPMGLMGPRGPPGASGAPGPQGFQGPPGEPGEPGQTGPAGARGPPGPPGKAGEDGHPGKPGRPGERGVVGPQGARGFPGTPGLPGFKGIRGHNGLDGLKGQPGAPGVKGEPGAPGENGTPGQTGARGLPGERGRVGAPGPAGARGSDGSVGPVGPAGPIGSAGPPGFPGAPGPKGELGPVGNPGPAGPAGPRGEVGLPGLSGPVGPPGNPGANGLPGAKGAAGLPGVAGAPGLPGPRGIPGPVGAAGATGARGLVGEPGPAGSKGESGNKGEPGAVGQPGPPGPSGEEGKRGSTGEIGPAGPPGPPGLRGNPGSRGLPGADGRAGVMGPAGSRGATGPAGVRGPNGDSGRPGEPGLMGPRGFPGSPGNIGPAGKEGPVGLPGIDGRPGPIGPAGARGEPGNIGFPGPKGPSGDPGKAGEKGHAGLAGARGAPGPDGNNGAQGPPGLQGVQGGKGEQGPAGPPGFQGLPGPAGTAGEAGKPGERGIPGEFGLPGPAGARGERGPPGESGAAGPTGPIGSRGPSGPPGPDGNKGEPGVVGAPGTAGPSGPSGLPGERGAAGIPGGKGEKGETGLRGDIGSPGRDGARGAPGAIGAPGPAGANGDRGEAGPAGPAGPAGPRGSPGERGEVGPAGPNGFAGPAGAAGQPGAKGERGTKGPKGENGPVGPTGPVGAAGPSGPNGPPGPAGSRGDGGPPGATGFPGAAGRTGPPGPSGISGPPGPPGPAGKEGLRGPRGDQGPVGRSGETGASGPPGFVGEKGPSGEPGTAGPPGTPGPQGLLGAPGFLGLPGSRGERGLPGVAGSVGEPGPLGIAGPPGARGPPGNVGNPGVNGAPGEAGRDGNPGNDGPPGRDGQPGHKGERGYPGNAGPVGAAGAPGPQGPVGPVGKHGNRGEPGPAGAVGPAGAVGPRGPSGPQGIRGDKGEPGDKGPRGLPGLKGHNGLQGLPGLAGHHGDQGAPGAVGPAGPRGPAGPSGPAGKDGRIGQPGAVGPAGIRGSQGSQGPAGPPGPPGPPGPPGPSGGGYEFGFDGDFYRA

Molecule: CC(C)CCON=O [Isopentyl nitrite, isopentyl nitrite, reference compound]
- solubility in water (Solubility in water): poor solubility in water
- T50 (porcine sclera [1]; [8]): 65.4 °C
- T50 Δ (porcine sclera [1]; [8]): 0.1 °C
- shift in Ts (in words) (porcine sclera [1]; neutral pH, up to 100 mM): did not result in a shift in Ts

Molecule: O=N[O-].[Na+] [NaNO2, sodium nitrite]
- contour changes in the corneas (porcine cornea [2]): Dramatic contour changes
- increase of onset of tissue shrinkage (porcine cornea [3]; 30 hours of treatment): approximately 4 °C
- increase of onset of tissue shrinkage (porcine cornea [3]; 80 hours of treatment): ~8 °C
- collagen cross-linking by SDS-PAGE (type I collagen; 10 mM): No differences are observed
- collagen cross-linking by SDS-PAGE (type I collagen; 100 mM): cross-linking of collagen primary strands is indicated
- stiffness change when handled with a forceps (porcine cornea [4]): intermediate effect
- tolerable level relative to genipin (ARPE-19 cells): at least 100 ×
- tolerance by cells (trypan blue) (ARPE-19 cells; 100 mM, 24 hrs): tolerated by cells
- highest tolerated level (ARPE-19 cells; ARPE-19): 100 mM
- Nitrite concentration in the aqueous humor, of the incubation fluid ([5]; 10 mM NaNO2, pH 7.4, 24 hours): 35.5%
- Nitrite concentration in the aqueous humor, of the incubation fluid ([5]; 100 mM NaNO2, pH 7.4, 24 hours): 62.8%
- blocking of the cross-linking effect by equimolar urea (porcine sclera [1]): unable to block
- T50 (porcine sclera [1]; 100 mM, pH 3, 96 hrs): 69.3 °C
- T50 Δ (porcine sclera [1]; 100 mM, pH 3, 96 hrs): 4.0 °C
- T50 (porcine sclera [1]; 100 mM, pH 5, 96 hrs): 67.3 °C
- T50 Δ (porcine sclera [1]; 100 mM, pH 5, 96 hrs): 2.0 °C
- T50 (porcine sclera [1]; [9]): 70.1 °C
- T50 Δ (porcine sclera [1]; [9]): 4.8 °C
- T50 (porcine sclera [1]; [10]): 69.7 °C
- T50 Δ (porcine sclera [1]; [10]): 4.4 °C
- T50 (porcine sclera [1]; [11]): 65.6 °C
- T50 Δ (porcine sclera [1]; [11]): 0.3 °C
- shifts in Ts (in words) (porcine sclera [1]; pH 3): approximately equal shifts in Ts
- T50 (temperature at 50% of maximal shrinkage) (porcine sclera [1]; pH 7.4): 65.7 °C
- T50 Δ (change in 50% shrinkage temperature compared to control) (porcine sclera [1]; pH 7.4): 0.4 °C
- effect on Ts (in words) (porcine sclera [1]; pH 7.4): no effect
- vertical deformation associated with preconditioning [6]: reduced vertical deformation associated with preconditioning
- vertical deformation at 1 g equibiaxial load [6]: reduced vertical deformation at 1 g equibiaxial load
- vertical remodeling [6]: reduced vertical remodeling
- contour changes in sclera samples (porcine sclera [7]): dramatic contour changes

Molecule: Benzalkonium chloride
- Toxic concentration (corneal endothelial cell): (0.0001%)
